Source: patent publication US20260315475A1 (priority 2023, published 2026)
Structures can show the parent of a compound that is named as a salt. Each block holds one compound with its values, some of them ahead of it.

What was measured:
[1] = Phase I single-dose open-label pharmacokinetic study in participants with normal hepatic function and varying degrees of hepatic impairment; assay type: in vivo, human; settings: for MRAUC (metabolite/parent ratio based on AUC): geometric mean (CV %); for tlast: plasma, single oral 200 mg belumosudil, fed, median
Text: The primary objective was to assess the pharmacokinetic (PK) of belumosudil following a single oral dose of belumosudil in participants with mild, moderate, or severe hepatic impairment compared to healthy participants with normal hepatic function.
The secondary objectives were: to evaluate the safety and tolerability of a single oral dose of belumosudil in participants with mild, moderate, or severe hepatic impairment, and in healthy participants with normal hepatic function; to assess the PK of the belumosudil metabolites following a single oral dose of belumosudil in participants with mild, moderate, or severe hepatic impairment compared to healthy participants with normal hepatic function.
Approximately 38 participants were to be enrolled into the following groups based on their hepatic function, as determined according to the Child-Pugh system. • Group 1 (n=approximately 16): matched healthy participants with normal hepatic function • Group 2 (n=8): participants with mild hepatic impairment (Child-Pugh Class A [score of 5 or 6]) • Group 3 (n=8): participants with moderate hepatic impairment (Child-Pugh Class B [score of 7 to 9]) • Group 4 (n=6): participants with severe hepatic impairment (Child-Pugh Class C [score of 10 to 14]).
Healthy participants with normal hepatic function (Group 1) were demographically matched by age (±10 years), sex, and body mass index (BMI; +20%) to participants with hepatic impairment (Groups 2, 3, and 4). Participants with normal hepatic function could be matched to multiple participants across the 3 hepatic impairment groups (mild, moderate, and severe), but could not be matched to more than 1 participant within the same impairment group.
Pharmacokinetic blood samples were obtained from predose until 48 hours postdose (Day 3).
Summary tables, mean (+standard deviation [SD]) figures, overlaying individual figures, and individual figures by hepatic function and time postdose were provided for plasma PK concentrations. Summary tables by hepatic function were provided for all PK parameters, with the exception of terminal phase regression-related diagnostic parameters (λz, λz upper, λ z lower, λz number of points, R2-adj, and % AUCextrap), which were listed only.
All other PK parameters were regarded as secondary and were not participant to inferential statistical analysis.

[2] = cited from earlier work
[3] = cited from earlier work; remark: listed apart in the source
CYP3A4 = settings: in vitro, high concentrations; cited from earlier work
[4] = healthy volunteers, per label; cited from earlier work

MRAUC (metabolite/parent ratio based on AUC) ([1]; mild hepatic impairment): 0.135 (73.8%)
MRAUC (metabolite/parent ratio based on AUC) ([1]; mild hepatic impairment, listed as KD025 m2): 0.135 (73.8) [8]
MRAUC (metabolite/parent ratio based on AUC) ([1]; moderate hepatic impairment): 0.318 (70.5%)
MRAUC (metabolite/parent ratio based on AUC) ([1]; moderate hepatic impairment, listed as KD025 m2): 0.318 (70.5) [7]
MRAUC (metabolite/parent ratio based on AUC) ([1]; normal hepatic function): 0.103 (68.8%)
MRAUC (metabolite/parent ratio based on AUC) ([1]; normal hepatic function, listed as KD025 m2): 0.103 (68.8) [14]
tlast ([1]; mild hepatic impairment): 23.9 h
tlast ([1]; moderate hepatic impairment): 48.0 h
tlast ([1]; normal hepatic function): 14.0 h
tlast ([1]; severe hepatic impairment): 48.0 h
MRAUC (metabolite/parent ratio based on AUC) ([1]; severe hepatic impairment): 0.680 (63.5%)
MRAUC (metabolite/parent ratio based on AUC) ([1]; severe hepatic impairment, listed as KD025 m2): 0.680 (63.5) [4]
Compound: O=C(O)COc1cccc(-c2nc(Nc3ccc4[nH]ncc4c3)c3ccccc3n2)c1 [KD025m2]

Compound: CC(C)NC(=O)COc1cccc(-c2nc(Nc3ccc4[nH]ncc4c3)c3ccccc3n2)c1 [belumosudil mesylate, 2-{3-[4-(1H-indazol-5-ylamino)-2-quinazolinyl]phenoxy}-N-(propan-2-yl) acetamide methanesulfonate (1:1)]
solubility in DMF ([2]; DMF): slightly soluble
solubility in DMSO ([2]; DMSO): soluble
solubility in methanol ([2]; methanol): slightly soluble
solubility in water ([2]; water): practically insoluble

Compound: C=CC(=O)N1CCC[C@@H](n2nc(-c3ccc(Oc4ccccc4)cc3)c3c(N)ncnc32)C1 [ibrutinib]
overall response rate (ORR) ([3]; cGVHD patients with >25% body surface area erythematous rash or NIH mouth score >4): 67%
discontinuation rate because of TEAEs ([3]; cGVHD patients): 43%

Compound: CO[C@H]1/C=C/O[C@@]2(C)Oc3c(C)c(O)c4c(O)c(c5c(nc6cc(C)ccn65)c4c3C2=O)NC(=O)/C(C)=C\C=C\[C@H](C)[C@H](O)[C@@H](C)[C@@H](O)[C@@H](C)[C@H](OC(C)=O)[C@@H]1C [rifaximin]
CYP3A4 induction (CYP3A4): CYP3A4 inducer at high concentrations
drug-drug interaction (DDI) effects [4]: not shown to have drug-drug interaction (DDI) effects
